This is an account of results in US8003688B2, “Method of treating symptoms of common cold, allergic rhinitis and infections relating to the respiratory tract” (ImmuPharm Aps, priority 2000, dated 2011).

Some results are limits rather than exact numbers.

In series [1] the test system is rhinovirus (1A, 15 or 39). The series can be described thus: Antiviral activity against rhinovirus in WISH cells measured via the MTS-system. Type of series: cell-based. The conditions noted are these: challenge virus, MTS read-out, Quercetin at levels not toxic to the cells. Here is the method:
Rhinovirus 1A, rhinovirus 15 and rhinovirus 39 were titrated according to the tetra zolium salt (MTS)-method (Berg et al., 1989; Berg and Owen, 2001a, Hansen et al., 1989). WISH cells were seeded in a micro tray at 3000 cells per well and incubated at 37° C., 5% CO2 overnight; the following morning the medium Was replaced with 10-fold dilutions of either rhinovirus 1A, rhinovirus 15 or rhinovirus 39, respectively, in fresh medium and the trays were incubated 4-5 days at 33° C.; a microscopical examination confirmed that the CytoPathogenic Effect (CPE) was fully developed (CPE equal to 100%). […] To quantitate the CPE in terms of % destruction, MTS (Berg and Owen, 2001a) was added to all cultures and after 3 h incubation at 37° C. (without CO2) the trays were read in a scanner as previuosly described (Berg et al, 1989, Hansen et al., 1989). […]
WISH cells were seeded in wells in a microtray and incubated for 24 h at 34° C., 5% CO2; the medium was replaced with fresh medium comprising 2-fold dilutions of ZnGluconate (diluted 1:10 from a 1% stock dilutions) and incubated further for […] at 33° C., 5% CO2; on the following day challenge virus was added and after 3-5 days at 33° C., 5% , CO2, MTS was added and the microtray was measured in an OD-scanner (Berg et al., 1989; Hansen et al., 1989). […]

Series [2] has as its system Rhino Virus (1A, 15 or 39). The series can be described thus: Potentiation of interferon antiviral activity vs. rhino virus in WISH cells. Type of series: cell-based, rhinovirus. The conditions noted are these: Troxerutin levels below 2.5 mg/ml added with 2-fold dilutions of interferon. How it is done: 3.000 WISH cells were seeded in a microtray and on the following morning, the medium was replaced with 2-fold dilutions (from a 0-30 units/ml stock solution) of HuIFN-α-2b (Intron A) in fresh medium comprising 2% serum. After incubation overnight, the medium was replaced with fresh medium comprising challenge virus and incubated at 33° C., 5% CO2 for 3-5 days and processed further as described in Example 2.
(§1) An experiment similar to Example 3 was carried out in which various, but constant concentrations of either Troxerutin or Veneruton or other relevant derivatives were added together with the 2-fold dilutions of interferon to WISH cells. A typical example from this series of experiments yielded no potentiation of the interferon system, (<1%) at all at Troxerutin levels below 2.5 mg/ml. Troxerutin concentrations higher than 2.5 mg/ml are toxic to the cells.

Series [3] relates to WISH cells. The series can be described thus: Toxicity to WISH cells. Type of series: cell-based. How it is done: as §1

As to `O=C([O-])[C@H](O)[C@@H](O)[C@H](O)[C@H](O)CO.O=C([O-])[C@H](O)[C@@H](O)[C@H](O)[C@H](O)CO.[Zn+2]` [ZnGluconate], in series [1], the protection against rhinovirus was below 2%.
Turning to `C[C@@H]1O[C@@H](OC[C@H]2O[C@@H](Oc3c(-c4ccc(OCCO)c(OCCO)c4)oc4cc(OCCO)cc(O)c4c3=O)[C@H](O)[C@@H](O)[C@@H]2O)[C@H](O)[C@H](O)[C@H]1O` [Troxerutin, troxerutin], the “potentiation of the interferon system” value in series [2] is given as below 1%. Moreover, in series [3], the “concentrations toxic to the cells” value is reported as “higher than 2.5 mg/ml”.
